Source: US7300946B2, “N-(substituted arylmethyl)-4-(disubstituted methyl) piperidines and pyridines” (Bayer CropScience AG, priority 2002, dated 2007)

Test system: tobacco budworm (Heliothis virescens [Fabricius])
Assay: surface-treated diet test against the tobacco budworm
Type: in vivo
Conditions: tobacco budworm second instar larvae, 0.25 millimoles of candidate insecticide on the surface of the diet, five-day exposure; for Percent Mortality: compared to total number of insects infested; for Percent Growth Inhibition: inhibition of insect weight relative to untreated controls
Summary of the method: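 Wheat germ artificial diet surface-treated with 40 µL of 50 mM DMSO stock diluted 1:7 in 1:1 water/acetone (0.25 millimolar on diet), or sub-multiples for rate tests. One second-instar larva per well, 25° C, 60% RH, 5 days; percent weight inhibition vs DMSO controls and percent mortality.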

| SMILES | Percent Mortality | Percent Growth Inhibition |
| --- | --- | --- |
| C#CCON=Cc1ccc(C[N+]2([O-])CCC(C(OC(=O)Nc3cc(F)cc(F)c3)c3ccc(C(F)(F)F)cc3)CC2)cc1 (stereo not drawn) [Compound 744] | 100% | 100% |
| CC(C)OC(=O)c1ccc(C[N+]2([O-])CCC(C(OC(=O)Nc3ccc(Cl)cc3)c3ccc(C(F)(F)F)cc3)CC2)cc1 (stereo not drawn) [Compound 745] | 100% | 100% |
| CC(C)OC(=O)Nc1ccc(C[N+]2([O-])CCC(C(OC(=O)Nc3cc(F)cc(F)c3)c3ccc(C(F)(F)F)cc3)CC2)cc1 (stereo not drawn) [Compound 746] | 100% | 100% |
| O=C(Nc1ccc(Cl)cc1)OC(c1ccc(C(F)(F)F)cc1)C1CC[N+]([O-])(Cc2ccc(-c3ccccc3)cc2)CC1 (stereo not drawn) [Compound 747] | 100% | 100% |
| O=C(Nc1cc(F)cc(F)c1)OC(c1ccc(C(F)(F)F)cc1)C1CC[N+]([O-])(Cc2ccc(-c3ccccc3)cc2)CC1 (stereo not drawn) [Compound 748] | 100% | 100% |
| O=C(Nc1cc(F)cc(F)c1)OC(c1ccc(C(F)(F)F)cc1)C1CC[N+]([O-])(Cc2ccc(Oc3ccccc3)cc2)CC1 (stereo not drawn) [Compound 749] | 100% | 100% |
| O=C(Nc1cc(F)cc(F)c1)OC(c1ccc(C(F)(F)F)cc1)C1CC[N+]([O-])(Cc2ccc(Oc3ccccc3F)cc2)CC1 (stereo not drawn) [Compound 750] | 100% | 100% |
| O=C(Nc1cc(F)cc(F)c1)OC(c1ccc(C(F)(F)F)cc1)C1CC[N+]([O-])(Cc2ccc(Oc3c(F)cccc3F)cc2)CC1 (stereo not drawn) [Compound 751] | 100% | 100% |
| O=C(Nc1cc(F)cc(F)c1)OC(c1ccc(F)cc1)C1CC[N+]([O-])(Cc2ccc(Oc3ccccn3)cc2)CC1 (stereo not drawn) [Compound 752] | 100% | 100% |
| O=C(Nc1ccc(F)cc1F)OC(c1ccc(C(F)(F)F)cc1)C1CC[N+]([O-])(Cc2ccc(Oc3ccccn3)cc2)CC1 (stereo not drawn) [Compound 753] | 100% | 100% |
| O=C(Nc1ccc(F)c(F)c1)OC(c1ccc(C(F)(F)F)cc1)C1CC[N+]([O-])(Cc2ccc(Oc3ccccn3)cc2)CC1 (stereo not drawn) [Compound 754] | 100% | 100% |
| O=C(Nc1cc(F)cc(F)c1)OC(c1ccc(C(F)(F)F)cc1)C1CC[N+]([O-])(Cc2ccc(Oc3ncccc3Cl)cc2)CC1 (stereo not drawn) [Compound 755] | 100% | 100% |
| O=C(Nc1cc(F)cc(F)c1)OC(c1ccc(C(F)(F)F)cc1)C1CC[N+]([O-])(Cc2ccc(Oc3ccc(Cl)cn3)cc2)CC1 (stereo not drawn) [Compound 756] | 100% | 100% |
| O=C(Nc1cc(F)cc(F)c1)OC(c1ccc(C(F)(F)F)cc1)C1CC[N+]([O-])(Cc2ccc(Oc3cccc(Cl)n3)cc2)CC1 (stereo not drawn) [Compound 757] | 100% | 100% |
| O=C(Nc1cc(F)cc(F)c1)OC(c1ccc(C(F)(F)F)cc1)C1CC[N+]([O-])(Cc2ccc(Oc3ncc(Cl)cc3Cl)cc2)CC1 (stereo not drawn) [Compound 758] | 100% | 100% |
| O=C(Nc1cc(F)cc(F)c1)OC(c1ccc(C(F)(F)F)cc1)C1CC[N+]([O-])(Cc2ccc(Oc3ncccc3C(F)(F)F)cc2)CC1 (stereo not drawn) [Compound 759] | 100% | 100% |
| O=C(Nc1cc(F)cc(F)c1)OC(c1ccc(C(F)(F)F)cc1)C1CC[N+]([O-])(Cc2ccc(Oc3cc(C(F)(F)F)ccn3)cc2)CC1 (stereo not drawn) [Compound 760] | 100% | 100% |
| COC(=O)N(c1ccc(C[N+]2([O-])CCC(C(OC(=O)Nc3cc(F)cc(F)c3)c3ccc(C(F)(F)F)cc3)CC2)cc1)c1ccccn1 (stereo not drawn) [Compound 761] | 100% | 100% |
| O=C(Nc1ccc(Cl)cc1)OC(c1ccc(C(F)(F)F)cc1)C1CC[N+]([O-])(Cc2ccc(Oc3ncccn3)cc2)CC1 (stereo not drawn) [Compound 762] | 100% | 100% |
| O=C(Nc1ccc(F)cc1F)OC(c1ccc(C(F)(F)F)cc1)C1CC[N+]([O-])(Cc2ccc(Oc3ncccn3)cc2)CC1 (stereo not drawn) [Compound 763] | 100% | 100% |
| O=C(Nc1ccc(F)c(F)c1)OC(c1ccc(C(F)(F)F)cc1)C1CC[N+]([O-])(Cc2ccc(Oc3ncccn3)cc2)CC1 (stereo not drawn) [Compound 764] | 100% | 100% |

| SMILES | Percent Mortality | Percent Growth Inhibition |
| --- | --- | --- |
| O=C(Nc1cc(F)cc(F)c1)OC(c1ccc(C(F)(F)F)cc1)C1CC[N+]([O-])(Cc2ccc(Oc3ncccn3)cc2)CC1 (stereo not drawn) [Compound 765] | 100% | 100% |
| O=C(Nc1ccc(Cl)cc1)OC(c1ccc(C(F)(F)F)cc1)C1CC[N+]([O-])(Cc2ccc(Oc3ccc(Cl)nn3)cc2)CC1 (stereo not drawn) [Compound 767] | 100% | 100% |
| O=C(Nc1cc(F)cc(F)c1)OC(c1ccc(C(F)(F)F)cc1)C1CC[N+]([O-])(Cc2ccc(Oc3ccc(Cl)nn3)cc2)CC1 (stereo not drawn) [Compound 768] | 100% | 100% |
| C=CCOC(c1ccc(C(F)(F)F)cc1)C1CCN(Cc2ccc(Oc3ccccn3)cc2)CC1 (stereo not drawn) [Compound 769] | 0% | 13% |
| CC(C)OC(=O)OC(c1ccc(C(F)(F)F)cc1)C1CCN(Cc2ccc(Oc3ccccn3)cc2)CC1 (stereo not drawn) [Compound 770] | 0% | 76% |
| CNC(=O)OC(c1ccc(C(F)(F)F)cc1)C1CCN(Cc2ccc(Oc3ccccn3)cc2)CC1 (stereo not drawn) [Compound 771] | 17% | 72% |
| CNC(=S)OC(c1ccc(C(F)(F)F)cc1)C1CCN(Cc2ccc(Oc3ccccn3)cc2)CC1 (stereo not drawn) [Compound 772] | 0% | 78% |
| CCON=Cc1ccc(CN2CCC(C(OC(=O)N(C)C)c3ccc(C(F)(F)F)cc3)CC2)cc1 (stereo not drawn) [Compound 773] | 100% | 100% |
| CCNC(=O)OC(c1ccc(C(F)(F)F)cc1)C1CCN(Cc2ccc(Oc3ccccn3)cc2)CC1 (stereo not drawn) [Compound 774] | 0% | 98% |
| CCCNC(=O)OC(c1ccc(C(F)(F)F)cc1)C1CCN(Cc2ccc(Oc3ccccn3)cc2)CC1 (stereo not drawn) [Compound 775] | 33% | 100% |
| CC(C)NC(=O)OC(c1ccc(C(F)(F)F)cc1)C1CCN(Cc2ccc(Oc3ccccn3)cc2)CC1 (stereo not drawn) [Compound 776] | 100% | 100% |
| CC(C)NC(=S)OC(c1ccc(C(F)(F)F)cc1)C1CCN(Cc2ccc(Oc3ccccn3)cc2)CC1 (stereo not drawn) [Compound 777] | 67% | 100% |
| CC(C)N(C)C(=O)OC(c1ccc(C(F)(F)F)cc1)C1CCN(Cc2ccc(Oc3ccccn3)cc2)CC1 (stereo not drawn) [Compound 778] | 0% | 100% |
| CC(C)(C)NC(=O)OC(c1ccc(C(F)(F)F)cc1)C1CCN(Cc2ccc(Oc3ccccn3)cc2)CC1 (stereo not drawn) [Compound 779] | 100% | 100% |
| C=CCNC(=O)OC(c1ccc(C(F)(F)F)cc1)C1CCN(Cc2ccc(Oc3ccccn3)cc2)CC1 (stereo not drawn) [Compound 780] | 0% | 98% |
| O=C(NC1CCCC1)OC(c1ccc(C(F)(F)F)cc1)C1CCN(Cc2ccc(Oc3ccccn3)cc2)CC1 (stereo not drawn) [Compound 781] | 100% | 100% |
| O=C(NC1CCCCC1)OC(c1ccc(C(F)(F)F)cc1)C1CCN(Cc2ccc(Oc3ccccn3)cc2)CC1 (stereo not drawn) [Compound 782] | 100% | 100% |
| CCOC(=O)CNC(=O)OC(c1ccc(C(F)(F)F)cc1)C1CCN(Cc2ccc(Oc3ccccn3)cc2)CC1 (stereo not drawn) [Compound 783] | 0% | 70% |
| COC(=O)C(NC(=O)OC(c1ccc(C(F)(F)F)cc1)C1CCN(Cc2ccc(Oc3ccccn3)cc2)CC1)C(C)C (stereo not drawn) [Compound 784] | 100% | 100% |
| CC(C)NC(=O)OC(c1ccc(C(F)(F)F)cc1)C1CC[N+]([O-])(Cc2ccc(Oc3ccccn3)cc2)CC1 (stereo not drawn) [Compound 785] | 100% | 100% |
| O=C(Nc1cc(F)cc(F)c1)OC(C1=CCN(Cc2ccc(Oc3ncccn3)cc2)CC1)c1ccc(C(F)(F)F)cc1 (stereo not drawn) [Compound 786, N-(3,5-difluorophenyl)({1-[(4-pyrimidin-2-yloxyphenyl)methyl](4-1,2,5,6-tetrahydropyridyl)}[4-(trifluoromethyl)phenyl]methoxy)carboxamide] | 100% | 100% |
